# Data from patent US9200253B1, “Method of producing erythrocytes” (Anthrogenesis Corporation, priority 2007, dated 2015).
# Legend:
# [1] = tested on: human UCB derived CD34+ cells; assay: Ex-vivo expansion of CD34+ cells in short-term serum-free, cytokine supplemented culture; format: cell-based; conditions: for CD34+ phenotype in the expanded population: control 10-30%; for total nucleated cell expansion: not impacted vs control
# Method: The ability of pomalidomide to enhance the expansion of human UCB derived CD34^+ cells in a short-term serum-free, cytokine supplemented culture system was evaluated. CD34^+ progenitor cells were enriched from cryopreserved UCB units to >90% purity and seeded (10^4 CD34^+ cells) in 1 mL of growth medium, which consists of IMDM plus serum substitute BIT (BSA, recombinant human insulin and transferrin, 20%), in the presence of SCF (50 ng/mL), Flt-3 ligand (50 ng/mL), and IL-3 (10 ng/mL). Pomalidomide, dissolved in DMSO, was supplemented at 2.7 μg/mL. The culture was incubated at 37° C., 5% CO2 for 12 days, with fresh medium added at day 7. Pomalidomide-free cultures with or without DMSO (0.05% v/v) were used as controls.
# [2] = tested on: Pomalidomide-expanded CD34+ cells; assay: Cumulative colony forming units of expanded CD34+ cells; format: cell-based, human
# [3] = tested on: CD34+ cells; assay: Scaled-up CD34+ expansion in gas-permeable fluorocarbon culture bag; format: cell-based, human
# Method: CD34^+ cells were seeded in 10^4/mL pomalidomide-supplemented medium in a flexible, gas-permeable fluorocarbon culture bag (American Fluoroseal). After 7 days of incubation, the culture was centrifuged and exchanged with fresh pomalidomide-supplemented medium at three times the initial volume. By day 12, TNC and CD34^+ expansion were 350 (range: 250-700) and 200 (range: 100-450) fold, respectively (FIG. 3). Viability was 86% (range: 80-90%) by trypan blue. A total of 20 million CD34^+ cells were harvested.
# [4] = first experiment, 2.7 μg/mL, 12 days
# [5] = day 12, seeded 10^4/mL, medium exchanged day 7 (FIG. 3)
smiles,measurement,setting,value
"Nc1cccc2c1C(=O)N(C1CCC(=O)NC1=O)C2=O (centres unmarked) [pomalidomide, 4-(Amino)-2-(2,6-dioxo(3-piperidyl))-isoindoline-1,3-dione]",CD38 expression on cultured cells,[1]; [4],appeared to down-regulate CD38 expression
same,CD38 negative fraction of expanded CD34+ cells,[1]; [4],95%
same,CD34+ phenotype in the expanded population,[1]; [4],40-60%
same,CD133 level on expanded CD34+ cells,"[1]; first experiment, 2.7 μg/mL, 12 days, control 40%",15%
same,total nucleated cell expansion,"[1]; first experiment, pomalidomide 2.7 μg/mL, 12 days",200-350 fold
same,CD38 expression on cultured cells,"[1]; second, similar experiment",appeared to down-regulate CD38 expression
same,CD38 negative fraction of expanded CD34+ cells,"[1]; second, similar experiment",97%
same,CD34+ phenotype in the expanded population,"[1]; second, similar experiment (FIG. 2)",40-60%
same,total nucleated cell expansion,"[1]; second, similar experiment, 2.7 μg/mL, 12 days",200-350 fold
same,CD133 level on expanded CD34+ cells,"[1]; second, similar experiment, control 32.3%",11.5%
same,cumulative colony forming units relative to expanded controls,[2]; first experiment,substantial improvement
same,cumulative colony forming units relative to expanded controls,"[2]; second, similar experiment",substantial improvement
same,Viability by trypan blue,[3]; day 12,86%
same,total CD34+ cells harvested,[3]; day 12,20 million
same,CD34+ expansion,[3]; [5],200 (range: 100-450) fold
same,TNC expansion,[3]; [5],350 (range: 250-700) fold
same,ex-vivo expansion of placental derived CD34+ progenitors,[3]; overall conclusion,significantly enhanced
